Values of other authors in patent publication US20120071440A1, “Pharmaceutical Composition For Enhancing Adiponectin Production And Food Useful Therefor” (priority 2009, published 2012).

Test system: adiponectin
Details: reported in Diabetes Research and Clinical Practice 2004

## Cn1c(=O)c2c(ncn2C)n(C)c1=O [caffeine]
  adiponectin production: capable of producing adiponectin, but this effect is not large
